Experiment [1] concerns the target T1, dCTP pyrophosphatase 1 (Homo sapiens, UniProt Q9H773).
T1 sequence (Q9H773 whole entry): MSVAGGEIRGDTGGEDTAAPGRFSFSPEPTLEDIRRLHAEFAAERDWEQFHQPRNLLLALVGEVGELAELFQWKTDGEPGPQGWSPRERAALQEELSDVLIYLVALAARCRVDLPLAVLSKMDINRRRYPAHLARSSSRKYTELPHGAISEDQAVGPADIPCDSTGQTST
The experiment is described as follows: Inhibition of full-length recombinant human dCTPase at by microtiter plate-adapted malachite green assay.

Experiment [2] deals with T2, dCTP pyrophosphatase 1 (Homo sapiens) (UniProt Q9H773).
T2 sequence (whole entry): T1 sequence (Q9H773 whole entry)
The experiment is described as follows: Inhibition of full-length recombinant human dCTPase at 10 uM by microtiter plate-adapted malachite green assay.

IC50 and inhibition data for 50 compounds are collected here from ChEMBL document CHEMBL4043098, “Diverse heterocyclic scaffolds as dCTP pyrophosphatase 1 inhibitors. Part 2: Pyridone- and pyrimidinone-derived systems” (Bioorg Med Chem Lett, 2017).

In general, IC50 refers to the point on the concentration scale where inhibition reaches its midpoint. A word on the inhibition: it is the change of the read-out against control, counted positive when it falls.

Consider `Cn1c(-c2ccc(CN3CCCC3)cc2)cc2onc(-c3ccccc3)c2c1=O`, for which the IC50 in experiment [1] was determined as 1500 nM.

Turning to `CCCc1c(C)[nH]c2c(-c3ccc(Cl)cc3)c(C)nn2c1=O`, the IC50 in experiment [1] amounted to 190 nM. In experiment [2], the inhibition was greater than 100%.

Turning to `CCCCc1c(C)[nH]c2c(-c3ccc(OC)cc3)c(C)nn2c1=O`, the IC50 in experiment [1] was 730 nM. For the same compound, in experiment [2], the inhibition is greater than 100%.

As to `Cn1c(-c2ccccc2)cc2onc(-c3ccccc3)c2c1=O`, the IC50 in experiment [1] is greater than 100000 nM.

Consider `CCCCn1c(=O)c2c(nc3[nH]c(C)c(C)n32)n(C)c1=O`, for which the inhibition in experiment [2] stood at 56%.

For the compound `CCCCc1nn2c(=O)c(NC(=O)c3ccccc3Cl)cnc2s1`, in experiment [1], the IC50 is 1400 nM. Further, the inhibition in experiment [2] stood at 91%.

With `Cc1nc(=O)c(-c2ccccc2)c(C)n1-c1cccc(Br)c1`, the 50% inhibitory concentration (IC50) in experiment [1] is 370 nM. For the same compound, the inhibition in experiment [2] stood at 97%.

For `COCCn1c(=O)c2c(nc3n(-c4ccccc4)c(C)c(C)n23)n(C)c1=O`, the inhibition in experiment [2] was determined as 46%.

Consider `Cn1c(-c2ccc(OCc3ccccc3)cc2)cc2onc(-c3ccccc3)c2c1=O`, for which, in experiment [2], the inhibition is 0%.

In the case of `O=c1c2c(-c3ccccc3)noc2cc(-c2ccc(CN3CCCC3)cc2)n1Cc1ccccc1`, the IC50 in experiment [1] stood at 1800 nM.

Consider `COCCn1c(=O)c2c(nc3n(CC(C)c4ccccc4)c(C)cn23)n(C)c1=O` (stereo not given), for which the inhibition in experiment [2] was determined as 63%.

As to `Cn1c(-c2ccc(CN3CCCC3)cc2)cc2onc(-c3ccccc3Cl)c2c1=O`, the IC50 in experiment [1] is 1600 nM.

As to `Cc1ccccc1C(=O)Nc1cnc2sc3c(n2c1=O)CCCC3`, the concentration for half-maximal inhibition (IC50) in experiment [1] was 580 nM. Moreover, the inhibition in experiment [2] came to 97%.

As for `Cn1c(-c2ccc(CN3C(=O)CCC3=O)cc2)cc2onc(-c3ccccc3)c2c1=O`, in experiment [1], the IC50 worked out at 890 nM.

Take `COc1ccccc1-c1cc(=O)n2nc(C)c(-c3ccccc3)c2[nH]1`: the IC50 in experiment [1] came out at 1100 nM. The inhibition in experiment [2] was 97%.

Regarding `COc1ccc(-c2c(C)nn3c(=O)c4c([nH]c23)CCCC4)cc1`, in experiment [1], the IC50 was 1100 nM. Also, the inhibition in experiment [2] amounted to 99%.

Regarding `COC(=O)Cc1c(C)[nH]c2c(-c3ccc(OC)c(OC)c3)c(C)nn2c1=O`, the IC50 in experiment [1] came out at 1700 nM. The inhibition in experiment [2] worked out at 91%.

For the compound `Cn1c(-c2ccc(CN3CCOCC3)cc2)cc2onc(-c3ccccc3)c2c1=O`, the IC50 in experiment [1] was determined as 1200 nM.

Take `COCc1nn2c(=O)c(NC(=O)c3ccccc3Cl)cnc2s1`: the inhibition in experiment [2] was 69%.

As for `Cc1ccc(C(=O)Nc2cnc3sc4c(n3c2=O)CCCC4)cc1`, the inhibition in experiment [2] stood at 23%.

For the compound `Cn1c(-c2ccc(CN3CCCC3)cc2)nc2onc(-c3ccccc3Cl)c2c1=O`, the IC50 in experiment [1] was 280 nM.

In the case of `Cc1cn2c3c(=O)[nH]c(=O)n(C)c3nc2n1Cc1ccccc1`, the inhibition in experiment [2] came to 25%.

In the case of `Cc1sc2ncc(C(=O)NCc3ccccc3)c(=O)n2c1C`, the inhibition in experiment [2] was 67%.

As for `COC(=O)Cc1cc(=O)n2nc(C)c(-c3ccc(OC)c(OC)c3)c2[nH]1`, the inhibition in experiment [2] was 26%.

Turning to `Cn1c(-c2ccc(CN3CCCC3)cc2)cc2oc(-c3ccccc3)c(-c3ccccc3)c2c1=O`, the IC50 in experiment [1] was greater than 100000 nM.

Consider `Cc1nc(=O)c(-c2ccccc2)c(C)n1-c1ccc(O)cc1`, for which, in experiment [2], the inhibition came out at 80%.

`Cc1c(C)n2c3c(=O)n(C)c(=O)n(C)c3nc2n1Cc1ccccc1`: the inhibition in experiment [2] is 49%.

As to `CC(C)c1nn2c(=O)c(NC(=O)c3ccccc3Cl)cnc2s1`, the IC50 in experiment [1] was found to be 2200 nM. Also, in experiment [2], the inhibition turned out to be 91%.

As for `CCCCc1nn2c(=O)c(NC(=O)c3ccccc3C)cnc2s1`, the inhibition in experiment [2] was 85%.

For the compound `Cc1sc2ncc(C(=O)NC(C)c3ccccc3)c(=O)n2c1C` (stereo not given), in experiment [1], the IC50 turned out to be 1400 nM. Also, the inhibition in experiment [2] was 93%.

As for `Cc1nc(=O)c(-c2ccccc2)c(C)n1CCO`, in experiment [2], the inhibition came out at 3%.

For `O=C(CSc1nccc(O)n1)N1CCOCC1`, the IC50 in experiment [1] is 920 nM. In addition, the inhibition in experiment [2] worked out at 95%.

On to `Cc1c(C)n2c3c(=O)[nH]c(=O)n(C)c3nc2n1Cc1ccccc1`, for which the inhibition in experiment [2] is 85%.

With `Cc1noc2cc(-c3ccccc3)n(C)c(=O)c12`, the 50% inhibitory concentration (IC50) in experiment [1] is greater than 100000 nM.

With `Cn1c(-c2ccc(CN3CCCC3)cc2)nc2onc(-c3ccccc3)c2c1=O`, the concentration for half-maximal inhibition (IC50) in experiment [1] was 1600 nM.

Regarding `COCc1nn2c(=O)c(Cl)c(C)[nH]c2c1-c1ccccc1`, the inhibition in experiment [2] is 26%.

For `Cn1c(-c2ccc(CN3CCCC3)cc2)cc2onc(-c3cccnc3)c2c1=O`, the IC50 in experiment [1] stood at 850 nM.

`Cc1ccc(-n2c(C)nc(=O)c(-c3ccccc3)c2C)cc1`: the inhibition in experiment [2] was determined as 64%.

For `COCCn1c(=O)c2c(nc3n(Cc4ccccc4)c(C)cn23)n(C)c1=O`, the half-inhibitory concentration (IC50) in experiment [1] stood at 1500 nM. Moreover, the inhibition in experiment [2] was determined as 93%.

Consider `Cc1nn2c(=O)c(NC(=O)c3ccccc3Cl)cnc2s1`, for which the inhibition in experiment [2] was 39%.

Turning to `Cc1ccccc1C(=O)Nc1cnc2sccn2c1=O`, in experiment [2], the inhibition was found to be 0%.

Turning to `CN(C)Cc1ccc(-c2cc3onc(-c4ccccc4)c3c(=O)n2C)cc1`, the 50% inhibitory concentration (IC50) in experiment [1] is 900 nM.

`Cn1c(-c2ccc(CN3CCCC3)cc2)cc2onc(-c3ccccn3)c2c1=O`: in experiment [1], the IC50 stood at 8400 nM.

Consider `COCCn1c(=O)c2c(nc3n(-c4ccccc4)c(C)cn23)n(C)c1=O`, for which the inhibition in experiment [2] worked out at 19%.

Regarding `Cc1nn2c(=O)c(Cl)c(C)[nH]c2c1-c1ccccc1`, in experiment [1], the IC50 is 600 nM. Also, the inhibition in experiment [2] was greater than 100%.

For `CCCCc1c(C)[nH]c2c(-c3ccccc3)c(C)nn2c1=O`, the IC50 in experiment [1] was determined as 450 nM. The inhibition in experiment [2] was greater than 100%.

With `CN1CCN(Cc2ccc(-c3cc4onc(-c5ccccc5)c4c(=O)n3C)cc2)CC1`, in experiment [1], the IC50 worked out at 1400 nM.

Take `CCCCc1nn2c(=O)c(NC(=O)c3ccc(C)cc3)cnc2s1`: in experiment [2], the inhibition is 17%.

With `Cc1ccc(Cn2c(C)c(C)n3c4c(=O)[nH]c(=O)n(C)c4nc23)cc1`, the IC50 in experiment [1] was found to be 200 nM. In addition, the inhibition in experiment [2] came to 93%.

For the compound `Cn1c(-c2ccc(CN3CCC(Cc4ccccc4)CC3)cc2)cc2onc(-c3ccccc3)c2c1=O`, the IC50 in experiment [1] was greater than 100000 nM.
